Assay results reported in ChEMBL document CHEMBL5346975, “Conjugation of Vancomycin with a Single Arginine Improves Efficacy against Mycobacteria by More Effective Peptidoglycan Targeting” (2023).
Converted amounts (≈) assume the structure as drawn. The source made the active and inactive calls. The rule behind the calls is not given here.

Experiments:
Type in all cases: functional
[1] = tested on: Mycolicibacterium smegmatis; assay: Antibiofilm activity against Mycobacterium smegmatis 700084 assessed as eradication of preformed bacterial biofilm incubated for 24 hrs by crystal violet staining based assay
Bacillus subtilis [2] = assay: Antibacterial activity against Bacillus subtilis 23857 assessed as inhibition of bacterial growth incubated for 18 to 20 hrs by broth microdilution method; conditions: time 18-20 hrs
[3] = tested on: Mycobacteroides abscessus; assay: Synergistic antibacterial activity against Mycobacterium abscessus 19977 assessed as test compound MIC incubated for 72 hrs in presence of 78 uM ethambutol by checkerboard assay
[4] = tested on: Mycobacteroides abscessus; assay: Antibacterial activity against Mycobacterium abscessus 19977 assessed as inhibition of bacterial growth incubated for 72 hrs by resazurin dye based broth microdilution method
[5] = tested on: Mycobacteroides abscessus; assay: Antibacterial activity against Mycobacterium abscessus 19977 assessed as elimination of viable bacteria at 2 times MIC measured after 50 hrs by time kill assay relative to control
[6] = tested on: Mycolicibacterium smegmatis; assay: (§1) Antibacterial activity of against Mycobacterium smegmatis 700084 assessed as Ac-Kaa-induced neutralization of antibiotic effect by measuring molar excess ratio of smallest concentration of AC-Kaa required to neutralize antibiotic effect to MIC of antibiotic at 16 uM incubated for 48 hrs by resazurin dye based broth microdilution method
[7] = tested on: Mycolicibacterium smegmatis; assay: Antibacterial activity against Mycobacterium smegmatis 700084 assessed as inhibition of bacterial growth incubated for 48 hrs by resazurin dye based broth microdilution method
[8] = tested on: Mycobacteroides abscessus; assay: Synergistic antibacterial activity against Mycobacterium abscessus 19977 assessed as fractional inhibitory concentration index incubated for 72 hrs in presence of ethambutol by checkerboard assay
[9] = tested on: Mycobacteroides abscessus; assay: Synergistic antibacterial activity against Mycobacterium abscessus 19977 assessed as test compound MIC incubated for 72 hrs in presence of 39 uM ethambutol by checkerboard assay
[10] = tested on: Corynebacterium glutamicum; assay: as §1, with “Corynebacterium glutamicum 13032” for “Mycobacterium smegmatis 700084”, “0.25” for “16”
[11] = tested on: Mycolicibacterium smegmatis; assay: Inhibition of biofilm formation in Mycobacterium smegmatis 700084 assessed as reduction in wrinkled pellicle formation incubated for 5 days; conditions: time 5 day
Mycobacterium avium [12] = assay: Antibacterial activity against Mycobacterium avium 25291 assessed as inhibition of bacterial growth incubated for 6 to 7 days by resazurin dye based broth microdilution method; conditions: time 6-7 day
Mycobacterium avium [13] = assay: Antibacterial activity against Mycobacterium avium 700898 assessed as inhibition of bacterial growth incubated for 6 to 7 days by resazurin dye based broth microdilution method; conditions: time 6-7 day
[14] = tested on: Corynebacterium glutamicum; assay: Antibacterial activity against Corynebacterium glutamicum 13032 assessed as inhibition of bacterial growth incubated for 18 to 20 hrs by broth microdilution method; conditions: time 18-20 hrs
Mycobacterium kansasii = assay: Antibacterial activity against Mycobacterium kansasii 12478 assessed as inhibition of bacterial growth incubated for 6 to 7 days by resazurin dye based broth microdilution method; conditions: time 6-7 day
[15] = tested on: Mycolicibacterium smegmatis; assay: Synergistic antibacterial activity against Mycobacterium smegmatis 700084 assessed as fractional inhibitory concentration index incubated for 48 hrs in presence of ethambutol by checkerboard assay
[16] = tested on: Mycolicibacterium smegmatis; assay: Inhibition of peptidoglycan biosynthesis in Mycobacterium smegmatis 700084 assessed as increase in N-glycolyl modified precursor UDP-MurNGlyc-pentapeptide accumulation at 10 uM incubated for 4 hrs by RP-HPLC method
Bacillus subtilis [17] = assay: as §1, with “Bacillus subtilis 23857” for “Mycobacterium smegmatis 700084”, “0.25” for “16”

SMILES	MBEC [1]	MIC (Bacillus subtilis [2]) [µM]	MIC [3] [µM]	MIC [4] [µM]	Activity [5] [%]	Ratio [6]	MIC [7] [µM]	fractional inhibitory concentration index (FICI) [8]	MIC [9] [µM]	Ratio [10]	BBC [11] [µM]	MIC (Mycobacterium avium [12]) [µM]	MIC (Mycobacterium avium [13]) [µM]	MIC [14] [µM]	MIC (Mycobacterium kansasii) [µM]	fractional inhibitory concentration index (FICI) [15]	inhibition [16]	Ratio (Bacillus subtilis [17])
CC[C@@H](CO)NCCN[C@@H](CC)CO [ETHAMBUTOL]	>256 µg/mL	–	–	–	–	–	–	–	–	–	–	–	–	–	–	–	–	–
CO[C@H]1/C=C/O[C@@]2(C)Oc3c(C)c(O)c4c(O)c(c(/C=N/N5CCN(C)CC5)c(O)c4c3C2=O)NC(=O)/C(C)=C\C=C\[C@H](C)[C@H](O)[C@@H](C)[C@@H](O)[C@@H](C)[C@H](OC(C)=O)[C@@H]1C [RIFAMPIN]	156 µM	–	–	–	–	–	–	–	–	–	–	–	–	–	–	–	–	–
CN[C@H](CC(C)C)C(=O)N[C@H]1C(=O)N[C@@H](CC(N)=O)C(=O)N[C@H]2C(=O)N[C@H]3C(=O)N[C@H](C(=O)N[C@H](C(=O)O)c4cc(O)cc(O)c4-c4cc3ccc4O)[C@H](O)c3ccc(c(Cl)c3)Oc3cc2cc(c3O[C@@H]2O[C@H](CO)[C@@H](O)[C@H](O)[C@H]2O[C@H]2C[C@](C)(N)[C@H](O)[C@H](C)O2)Oc2ccc(cc2Cl)[C@H]1O [VANCOMYCIN]	64 µM	0.25 (≈ 0.362 µg/mL)	2	64 (≈ 92.8 µg/mL)	>95	3.9	8 (≈ 11.6 µg/mL)	0.17	3	62.5	0.5	> 256	64 (≈ 92.8 µg/mL)	0.25 (≈ 0.362 µg/mL)	24 (≈ 34.8 µg/mL)	0.28	Active	15.6
